Assay results: ChEMBL document CHEMBL1201862, “PubChem BioAssay data set” (2004)
“And” between values parts separate entries of the source, which are not always exact repeats. Equal values may be shown once. The source made the active and inactive calls. For most assays here, no stated cut-off is given here; in the data, actives have a measured EC50 and inactives only a lower limit.

Tests used:
[1] = biological target: T1, RNA-binding protein pos-1 (Caenorhabditis elegans, UniProt G5EF15); assay: disruptors of C. elegans POS-1 RNA interaction – biochemical, fluorescence polarization, dose response (AID 1964);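 further: purified POS-1 fused to maltose binding protein made in E. coli; potency of compounds blocking POS-1 binding to fluorescent RNA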
T1 sequence (G5EF15 whole entry): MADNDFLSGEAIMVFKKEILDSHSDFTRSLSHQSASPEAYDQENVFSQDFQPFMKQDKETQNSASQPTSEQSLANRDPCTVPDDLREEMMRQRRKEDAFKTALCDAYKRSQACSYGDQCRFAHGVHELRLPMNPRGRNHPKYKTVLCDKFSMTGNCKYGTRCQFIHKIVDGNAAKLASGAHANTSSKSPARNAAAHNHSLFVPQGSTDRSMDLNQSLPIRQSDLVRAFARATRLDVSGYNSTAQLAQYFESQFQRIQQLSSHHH

[2] = biological target: T2, Zinc finger protein mex-5 (Caenorhabditis elegans, UniProt Q9XUB2); assay: potency of MEX-5 RNA-binding blockers – biochemical, C. elegans, fluorescence polarization, dose response (AID 1960)
T2 sequence (Q9XUB2 whole entry): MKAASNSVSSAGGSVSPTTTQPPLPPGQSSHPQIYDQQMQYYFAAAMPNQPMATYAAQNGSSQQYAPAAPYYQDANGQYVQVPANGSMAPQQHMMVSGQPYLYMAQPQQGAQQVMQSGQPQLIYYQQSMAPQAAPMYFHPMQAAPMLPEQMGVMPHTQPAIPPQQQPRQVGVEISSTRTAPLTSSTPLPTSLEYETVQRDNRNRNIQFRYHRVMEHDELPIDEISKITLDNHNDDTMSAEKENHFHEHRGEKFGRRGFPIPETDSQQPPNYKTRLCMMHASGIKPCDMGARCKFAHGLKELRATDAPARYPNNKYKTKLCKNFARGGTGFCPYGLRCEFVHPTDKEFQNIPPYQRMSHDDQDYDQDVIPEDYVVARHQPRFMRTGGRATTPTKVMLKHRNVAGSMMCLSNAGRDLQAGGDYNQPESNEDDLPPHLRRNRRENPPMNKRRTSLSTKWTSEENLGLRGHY

[3] = biological target: Cytochrome P450 2D6 (Homo sapiens, UniProt P10635);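 further: CYP2D6 member of a cytochrome P450 panel assay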
Cytochrome P450 2D6, sequence (P10635 whole entry): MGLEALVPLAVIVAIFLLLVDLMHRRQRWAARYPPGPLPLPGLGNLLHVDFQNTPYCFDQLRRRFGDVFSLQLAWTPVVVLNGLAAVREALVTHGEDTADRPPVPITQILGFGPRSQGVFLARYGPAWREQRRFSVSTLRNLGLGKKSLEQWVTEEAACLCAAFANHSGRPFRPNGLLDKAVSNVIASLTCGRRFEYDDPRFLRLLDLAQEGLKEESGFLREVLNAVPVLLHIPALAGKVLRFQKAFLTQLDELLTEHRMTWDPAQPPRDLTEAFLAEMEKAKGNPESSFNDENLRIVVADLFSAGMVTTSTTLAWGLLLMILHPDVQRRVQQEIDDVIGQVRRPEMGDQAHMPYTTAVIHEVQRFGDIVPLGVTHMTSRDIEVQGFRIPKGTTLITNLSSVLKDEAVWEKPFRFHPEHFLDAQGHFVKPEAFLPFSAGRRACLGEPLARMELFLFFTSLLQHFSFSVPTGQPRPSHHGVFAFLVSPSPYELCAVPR

[4] = biological target: Cytochrome P450 2C9 (Homo sapiens, UniProt P11712)
Cytochrome P450 2C9, sequence (P11712 whole entry): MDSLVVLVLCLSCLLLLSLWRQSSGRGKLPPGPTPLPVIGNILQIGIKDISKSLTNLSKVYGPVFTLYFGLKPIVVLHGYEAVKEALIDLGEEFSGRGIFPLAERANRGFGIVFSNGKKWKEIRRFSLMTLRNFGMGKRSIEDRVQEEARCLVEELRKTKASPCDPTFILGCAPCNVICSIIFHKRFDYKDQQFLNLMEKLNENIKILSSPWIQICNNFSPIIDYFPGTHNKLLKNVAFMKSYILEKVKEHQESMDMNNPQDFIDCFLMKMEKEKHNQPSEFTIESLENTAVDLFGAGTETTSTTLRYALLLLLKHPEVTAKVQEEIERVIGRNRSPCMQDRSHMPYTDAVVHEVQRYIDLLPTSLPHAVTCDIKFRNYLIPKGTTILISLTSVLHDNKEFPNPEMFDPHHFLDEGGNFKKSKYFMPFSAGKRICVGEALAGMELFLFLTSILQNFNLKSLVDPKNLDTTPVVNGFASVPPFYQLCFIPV

[5] = NIH-3T3 fibroblast cytotoxicity, dose response, cytotoxicity control, cell-based, fluorescence, Alamar Blue, secondary assay (AID 2327); format: functional;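 further: NIH-3T3 mouse fibroblasts cultured with fluconazole at 8 µg/mL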
[6] = fluconazole-exposed Candida albicans growth modulators – fluorescence, retest, confirmation (AID 2467); format: functional, cell-based
[7] = biological target: T3, Heat shock factor protein 1 (Mus musculus, UniProt P38532); assay: enhancement of HSF1-driven luciferase signal – cell-based, NIH3T3, luminescence, dose retest, confirmation (AID 435004); format: functional;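 further: stress induced by proteasome inhibitor MG132 added 30 min after compound; luciferase reporter driven by HSF1 response element in NIH3T3 cells; actives raise luminescence as potentiators of the MG132 stress response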
T3 sequence (P38532 whole entry): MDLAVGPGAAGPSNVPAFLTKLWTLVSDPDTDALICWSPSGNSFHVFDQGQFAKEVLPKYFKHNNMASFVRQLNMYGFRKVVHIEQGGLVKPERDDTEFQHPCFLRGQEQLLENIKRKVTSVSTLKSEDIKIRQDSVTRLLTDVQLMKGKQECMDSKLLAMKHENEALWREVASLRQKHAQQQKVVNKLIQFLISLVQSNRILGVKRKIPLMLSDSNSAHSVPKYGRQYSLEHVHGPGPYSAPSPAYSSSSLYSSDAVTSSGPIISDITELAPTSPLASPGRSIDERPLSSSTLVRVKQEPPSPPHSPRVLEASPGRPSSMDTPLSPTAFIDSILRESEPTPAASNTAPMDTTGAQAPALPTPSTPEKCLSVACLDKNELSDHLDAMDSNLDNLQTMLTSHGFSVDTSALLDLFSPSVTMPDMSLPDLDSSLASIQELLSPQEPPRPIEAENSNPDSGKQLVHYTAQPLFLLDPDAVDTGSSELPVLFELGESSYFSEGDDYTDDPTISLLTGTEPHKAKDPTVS

[8] = biological target: Cytochrome P450 3A4 (Homo sapiens, UniProt P08684);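 further: CYP3A4 tested as one member of a cytochrome P450 panel screen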
Cytochrome P450 3A4, sequence (P08684 whole entry): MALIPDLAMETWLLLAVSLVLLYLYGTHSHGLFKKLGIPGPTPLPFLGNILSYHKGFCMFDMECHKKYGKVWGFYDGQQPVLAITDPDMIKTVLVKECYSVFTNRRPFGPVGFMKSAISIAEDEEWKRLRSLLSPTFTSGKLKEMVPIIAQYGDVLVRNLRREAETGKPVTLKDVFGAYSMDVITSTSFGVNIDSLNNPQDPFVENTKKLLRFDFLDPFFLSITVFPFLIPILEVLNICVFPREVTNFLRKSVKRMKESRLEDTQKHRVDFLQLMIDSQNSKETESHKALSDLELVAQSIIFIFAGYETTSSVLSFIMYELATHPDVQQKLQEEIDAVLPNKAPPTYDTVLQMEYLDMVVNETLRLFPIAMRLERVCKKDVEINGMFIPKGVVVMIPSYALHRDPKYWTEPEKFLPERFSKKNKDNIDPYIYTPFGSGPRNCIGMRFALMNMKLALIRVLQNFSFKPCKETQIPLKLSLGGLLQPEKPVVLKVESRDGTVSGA

[9] = system: Streptococcus sp. 'group A'; assay: Streptococcus pyogenes SK(-)GAS viability under kanamycin – luminescence, BacTiterGlo, confirmation, counter-screen for streptokinase expression inhibitor project, dose response (AID 1900); format: functional, organism-based
[10] = biological target: T4, Streptokinase A (Streptococcus pyogenes serotype M1, UniProt P10520); assay: viability-normalized secreted streptokinase activity reduction – plasminogen activation absorbance, OD405, dose response (AID 1914); format: functional, Streptococcus pyogenes M1 GAS;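 further: secreted streptokinase activity via plasminogen activation per viability signal from cell pellet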
T4 sequence (P10520 whole entry): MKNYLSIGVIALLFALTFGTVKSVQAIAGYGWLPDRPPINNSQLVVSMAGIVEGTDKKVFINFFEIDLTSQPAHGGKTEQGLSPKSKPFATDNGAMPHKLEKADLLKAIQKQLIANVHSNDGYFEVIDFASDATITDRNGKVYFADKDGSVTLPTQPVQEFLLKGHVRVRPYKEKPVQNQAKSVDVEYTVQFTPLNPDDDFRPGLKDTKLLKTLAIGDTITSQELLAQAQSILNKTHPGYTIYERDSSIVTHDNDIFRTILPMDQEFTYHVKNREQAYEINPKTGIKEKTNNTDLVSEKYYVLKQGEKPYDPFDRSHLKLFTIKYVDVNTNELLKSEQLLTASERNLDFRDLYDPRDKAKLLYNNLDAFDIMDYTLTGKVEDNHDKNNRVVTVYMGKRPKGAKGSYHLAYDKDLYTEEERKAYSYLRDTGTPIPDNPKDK

[11] = system: Streptococcus; assay: GAS UMAA2166 growth inhibition – luminescence, BacTiterGlo, counter-screen for streptokinase expression inhibitor project, dose response (AID 1915); format: functional, organism-based;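 further: potency for reduction of bacterial viability or growth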
[12] = system: INS1; assay: INS-1E survival protection against cytokine death – cell-based, luminescence, retest, dose response (AID 449756); format: functional; details: Rattus norvegicus;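 further: cell death triggered by IL-1 beta plus TNF-alpha plus IFN-gamma mixture; protective hits raise ATP signal compared with cytokine alone wells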

## N#Cc1c(NC(=O)/C=C/C(=O)O)sc2c1CCN(Cc1ccccc1)C2
[1]
  EC50: 31 µM (active)
[2]
  EC50: 25.5 µM (active)

## COCCNC(=O)[C@H](C)[C@H]1C[C@]1(C)[C@H](NC(=O)OCc1ccccc1)c1ccccc1
[3]
  AC50: 20 µM (inconclusive)
[4]
  AC50: 20 µM (inconclusive)

## C[C@H](NCCc1ccc(O)cc1)[C@@H](O)c1ccc(O)cc1
[3]
  AC50: 15.8 µM (inconclusive) and 12.6 µM (inconclusive)

## O=C(O)c1cc(-c2ccc(O)cc2)on1
[5]
  EC50: > 160 µM (inactive)
[6]
  EC50: > 38 µM (not active)

## FC(F)(F)COc1nc(OCC(F)(F)F)nc(N2CCN(c3ccccc3)CC2)n1
[5]
  EC50: > 160 µM (inactive)
[6]
  EC50: > 38 µM (not active)

## C[As+](C)(c1ccc(Br)c([N+](=O)[O-])c1)c1ccc(Br)c([N+](=O)[O-])c1
[3]
  AC50: 1.58 µM (inconclusive)

## COc1cccc(CNc2ccc3nc(-c4ccc(N)cc4)c(OC)n3n2)c1
[3]
  AC50: 10 µM (inconclusive)

## C/N=C1\N[C@H](c2ccccc2)N(c2ccccc2)S1
[3]
  AC50: 25.1 µM (inconclusive)

## COc1ccc(N(CC(=O)Nc2cccc(C)c2)S(=O)(=O)c2c(C)n[nH]c2C)cc1
[3]
  AC50: 20 µM (inconclusive)

## CCN(C(=O)c1cc(Cl)ccc1OC)C1CCCCC1
[1]
  EC50: > 300 µM (not active)
[2]
  EC50: > 300 µM (not active)

## Cc1ccc(C)c(NC(S)=NNC(=O)c2csc(C)c2)c1
[5]
  EC50: 67.2 µM (active)
[6]
  EC50: 0.947 µM (active)

## COc1ccc(N/C=C2/C(=O)NC(=S)N(Cc3ccccc3)C2=O)c(OC)c1
[1]
  EC50: > 300 µM (inconclusive)
[2]
  EC50: > 300 µM (inconclusive)
[7]
  EC50: 2.74 µM (active)

## CCOC(=O)C1Nc2ccc(C)cc2C2C=CCC12 (stereo unspecified)
[1]
  EC50: > 300 µM (not active)
[2]
  EC50: > 300 µM (not active)

## O=C(NC(=S)Nn1cnc2c(cnn2-c2ccccc2)c1=O)c1ccc(Cl)cc1
[5]
  EC50: 143 µM (inconclusive)
[6]
  EC50: > 38 µM (not active)

## O=S(=O)(Nc1ccc(O)c2ccccc12)c1ccc(Br)cc1
[1]
  EC50: 36 µM (active)
[2]
  EC50: 22.9 µM (active)

## CCCCCCCSc1nc(N)cc(O)n1
[5]
  EC50: > 150 µM (inactive)
[6]
  EC50: 4.49 µM (active)

## CCS(=O)(=O)N1CCC(C(=O)NCCN2CCN(Cc3ccccc3)CC2)CC1
[3]
  AC50: 14.1 µM (inconclusive)

## Cc1ccc(C)c(/C(=N\N=C(N)N)C2CC2)c1
[3]
  AC50: 3.98 µM (inconclusive)

## O=C(O)c1ccc2c(c1)C1C=CCC1C(c1ccncc1)N2 (stereo unspecified)
[1]
  EC50: 58.5 µM (active)
[2]
  EC50: 24.3 µM (inconclusive)

## COc1cc(C2C(C#N)=C(N)OC3=C2C(=O)CCC3)cc2c1OCO2 (stereo unspecified)
[1]
  EC50: > 300 µM (not active)
[2]
  EC50: > 300 µM (not active)

## CS(=O)(=O)Nc1cccc(-c2nc(Nc3ccc(F)cc3)c3ccccc3n2)c1
[3]
  AC50: 39.8 µM (inconclusive)

## Cc1cnc(CNc2ncnc3ccc(-c4ccoc4)cc23)cn1
[3]
  AC50: 39.8 µM (inconclusive)

## C=CCn1c(Cc2nc3ccccc3[nH]2)n[nH]c1=S
[1]
  EC50: 80.2 µM (active)
[2]
  EC50: 1.1 µM (active)

## CC(=O)C(=NNc1nc2c([nH]1)c(=O)n(C)c(=O)n2C)C(C)=O
[1]
  EC50: 73.9 µM (active)
[2]
  EC50: 12.7 µM (active)

## CC(C)CNC(=O)C1Nc2ccc(C(F)(F)F)cc2C2C=CCC12 (stereo unspecified)
[1]
  EC50: > 300 µM (not active)
[2]
  EC50: > 300 µM (not active)

## CNc1nc(-c2ccccc2C)nc2ccccc12
[3]
  AC50: 31.6 µM (inconclusive)
[8]
  AC50: 20 µM (inconclusive)

## COC(=O)c1cc(C(=O)OC)cc(-n2c(C)cc(C(=O)COC(=O)CNS(=O)(=O)c3ccc(C)cc3)c2C)c1
[1]
  EC50: > 300 µM (not active)
[2]
  EC50: > 300 µM (not active)

## CC(C)c1ccccc1-n1c(SCC(=O)N2CCN(c3ccccc3)CC2)nnc1-c1cccnc1
[3]
  AC50: 15.8 µM (inconclusive)

## O=S(=O)(NCC(c1ccco1)N1CCN(c2ccc(F)cc2)CC1)c1ccc2c(c1)OCCO2 (stereo unspecified)
[5]
  EC50: > 150 µM (inactive)
[6]
  EC50: > 38 µM (not active)

## CCC1=NN(C(=O)c2ccccc2O)C(O)(c2ccccc2)C1 (stereo unspecified)
[5]
  EC50: > 160 µM (inactive)
[9]
  EC50: 2.58 µM (active)
[10]
  EC50: > 150 µM (not active)
[6]
  EC50: 0.788 µM (active)
[11]
  EC50: 26.7 µM (active)
[12]
  AC50: 3.72 µM (active)

## Cc1cc(/C=C2\C(=O)NC(=O)N(c3cccc(F)c3)C2=O)c(C)n1-c1ccc(C(=O)O)c(Cl)c1
[1]
  EC50: > 300 µM (not active)
[2]
  EC50: > 300 µM (not active)

## Cc1cccc(NC2=NC(=O)CS2)c1
[1]
  EC50: > 300 µM (not active)
[2]
  EC50: > 300 µM (not active)

## O=C(CCC(=O)c1cccs1)OCC(=O)N1CCN(C(=O)c2ccco2)CC1
[3]
  AC50: 39.8 µM (inconclusive)
[4]
  AC50: 11.2 µM (inconclusive)

## Cc1n[nH]c(C)c1CCNCc1ccc(OCC(O)CN2CCCCC2)cc1 (stereo unspecified)
[5]
  EC50: > 150 µM (inconclusive)
[6]
  EC50: > 38 µM (not active)

## c1ccc(-c2ccc(N3CCCC4(CCNCC4)C3)cc2)cc1
[3]
  AC50: 20 µM (inconclusive)

## Cc1cccc(/N=N/c2c(C)[nH]n(C(N)=S)c2=O)c1C
[5]
  EC50: > 150 µM (inactive)
[6]
  EC50: 3.07 µM (active)

## COc1cccc(N/N=C2/C(=O)Nn3c2nc(C)cc3=O)c1
[1]
  EC50: > 300 µM (inconclusive)
[2]
  EC50: < 0.06 µM (inconclusive)

## CCNC(=O)O/N=C(\C)c1sc(-c2ccccc2)nc1C
[3]
  AC50: 20 µM (inconclusive)

## O=C1CCCCC/C1=N/Nc1ccc(OCc2ccccc2)cc1
[5]
  EC50: > 150 µM (inactive)
[6]
  EC50: > 38 µM (not active)

## CC(C)=CCc1c2c(c(O)c3c(=O)c4c(oc13)-c1cc(O)c(O)cc1OC4C=C(C)C)C=CC(C)(C)O2 (stereo unspecified) [CYCLOHETERPHYLLIN]
[5]
  EC50: 16.5 µM (inconclusive)
[9]
  EC50: 2.95 µM (active)
[10]
  EC50: > 150 µM (not active)
[6]
  EC50: > 38 µM (not active)
[11]
  EC50: 4.01 µM (active)
